Test results taken from US20190151351A1, “REGULATORS OF ANAPLASTIC LYMPHOMA KINASE AND USES THEREOF” (Celldex Therapeutics, Inc., priority 2014, published 2019).
Each block holds one molecule with its values, some of them ahead of it.

Columns and labels:
[1] = tested on: ALK; test: SOS inhibition of heparin-induced phosphorylation in NB1 neuroblastoma cells; type: cell-based; settings: SOS 0-10 mg/mL along with 10 μg/mL heparin
Protocol: FIG. 4: Heparin induced activation of ALK is inhibited by sucrose-octasulfate (SOS).
NB1 neuroblastoma cells were treated with increasing doses of SOS (0, 0.001, 0.01, 0.1, 1, and 10 mg/mL) along with 10 μg/mL of heparin.

[2] = target: FL-ECD binding to heparin; test: SPR competition: inhibition of FL-ECD binding to heparin surface
Protocol: FIG. 8: Sucrose octasulfate (SOS) inhibits ALK binding to heparin in a dose-dependent manner, as measured by SPR. A titration of SOS was pre-incubated with 350 nM of FL-ECD. These complexes were then injected over the heparin surface.
These complexes were then injected over the heparin surface. […] In addition, the IC50 and inhibition constant values indicate a high degree of specificity for the interaction between heparin and ALK.
A BIACORE™ T100 instrument was used at 25° C. using 25 mM Hepes, 300 mM NaCl, 10% Glycerol, pH 7.4. All reagents were dialyzed with this buffer prior to use. Heparin-biotin (Sigma) sold as ≥97% pure was further purified using PD-10 pre-packed columns (GE-Healthcare) to remove free biotin in solution. Heparin-biotin was then immobilized on an assembled NeutrAvidin surface (amine coupled on a CM4 Series-S Biacore chip): three surfaces were produced with different concentrations of immobilized heparin by varying contact time from 48 to 240 s, and excess ligand was removed. Due to the heterogeneous nature of heparins, the surface was a combination of many chain lengths of heparin. Three-fold dilutions of FL-ECD and ΔN-ECD were injected sequentially over a reference surface without heparin and three heparin surfaces. The surface was regenerated between cycles with 2.5 M NaCl, 5 mM Acetic Acid, pH 4.5. For the SOS competition assay, serial dilutions of SOS were pre-incubated with 0.350 μM FL-ECD and then injected over the chip. Data were analyzed using the BiaCore T100 software.

[3] = tested on: ALK; test: Western blot of ALK and AKT phosphorylation in NB1 neuroblastoma cells (heparin dose response, other glycosaminoglycans); type: cell-based; settings: heparin 0-100 μg/mL, other glycosaminoglycans at 10 μg/mL
Protocol: NB1 neuroblastoma cells were treated with increasing doses of heparin (0, 0.001, 0.01, 0.1, 1, 10, 100 μg/mL heparin), and phosphorylation of ALK and AKT was monitored by Western blot analysis. Various glycosaminoglycans at 10 μg/mL were also assessed for their ability to activate ALK. An ALK-agonistic mAb was used as a positive control for pALK and pAKT.

[4] = tested on: ALK; test: Western blot of ALK and MAPK phosphorylation in NB1 neuroblastoma cells; type: cell-based; settings: heparin 10 μg/mL
Protocol: FIG. 2: Heparin, but neither PTN or MK, induces ALK tyrosine phosphorylation. […] An agonistic anti-ALK monoclonal antibody was used as a positive control for activation of ALK and MAPK.
NB1 neuroblastoma cells were treated with heparin (Hep), pleiotrophin (PTN), and midkine (MK) to determine the influence of each on ALK phosphorylation. […] An agonistic anti-ALK monoclonal antibody was used as a positive control for activation of ALK and MAPK.
Target sequence in this assay (Q9UM73 19-222 limits assumed): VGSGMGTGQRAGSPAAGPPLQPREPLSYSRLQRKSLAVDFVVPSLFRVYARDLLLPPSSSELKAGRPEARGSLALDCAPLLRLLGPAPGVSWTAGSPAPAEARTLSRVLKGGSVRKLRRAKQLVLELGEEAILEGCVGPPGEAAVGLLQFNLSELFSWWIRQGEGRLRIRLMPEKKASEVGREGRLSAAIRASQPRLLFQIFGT

- Ki ([2]; SPR SOS competition with 350 nM FL-ECD, read-out: inhibition constant (Ki)): 2250 nM
- IC50 ([2]; SPR, SOS pre-incubated with 350 nM FL-ECD, Rmax values): 6500 nM
- Kd ([2]; calculated using the Cheng-Prusoff equation, read-out: KD for SOS/FL-ECD binding): 2250 nM
Molecule: O=S(=O)(O)OC[C@H]1O[C@@](COS(=O)(=O)O)(O[C@H]2O[C@H](COS(=O)(=O)O)[C@@H](OS(=O)(=O)O)[C@H](OS(=O)(=O)O)[C@H]2OS(=O)(=O)O)[C@@H](OS(=O)(=O)O)[C@@H]1OS(=O)(=O)O [SOS, Sucrose-octasulfate]
- inhibition of heparin-induced phosphorylation of ALK, AKT and MAPK [1]: capable of inhibiting heparin-induced phosphorylation of ALK, AKT, and MAPK in a dose dependent manner

Molecule: Dextran sulfate
- phosphorylation of ALK and AKT [3]: induce phosphorylation of ALK and AKT

B1: PTN: secreted protein Pleiotrophin, proposed as physiological ALK ligand (protein)
chain: GKKEKPEKKVKKSDCGEWQWSVCVPTSGDCGLGTREGTRTGAECKQTMKTQRCKIPCNWKKQFGAECKYQFQAWGECDLNTALKTRTGSLKRALHNAECQKTVTISKPCGKLTKPKPQAESKKKKKEGKKQEKMLD
- ALK (tyrosine) phosphorylation [4]: neither PTN nor MK influence ALK phosphorylation

B2: MK: secreted protein Midkine, proposed as physiological ALK ligand (protein)
chain: VAKKKDKVKKGGPGSECAEWAWGPCTPSSKDCGVGFREGTCGAQTQRIRCRVPCNWKKEFGADCKYKFENWGACDGGTGTKVRQGTLKKARYNAQCQETIRVTKPCTPKTKAKAKAKKGKGKD
- ALK (tyrosine) phosphorylation [4]: neither PTN nor MK influence ALK phosphorylation
